From ChEMBL document CHEMBL1201862, “PubChem BioAssay data set” (2004)
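Results reflect a 48-hour exposure of cells in 96-well plates to compound at five concentrations. Abbreviation: GI50, concentration required for 50% inhibition of growth.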 Calls of active or inactive are those of the source. Cut-off read from the data, not from the text of the source: active = GI50 up to about 1.1 µM and inactive = higher.

Tests used:
Test in all cases: NCI anticancer screen, dose series, 48 h
786-0 = test system: 786-0
A549 = test system: A549
ACHN = test system: ACHN
BT-549 = test system: BT-549
HT-29 = test system: HT-29
Hs-578T = test system: Hs-578T
MDA-MB-435 = test system: MDA-MB-435
MOLT-4 = test system: MOLT-4
NCI-H226 = test system: NCI-H226
NCI-H23 = test system: NCI-H23
NCI-H522 = test system: NCI-H522
OVCAR-4 = test system: OVCAR-4
OVCAR-8 = test system: OVCAR-8
SK-MEL-28 = test system: SK-MEL-28
SK-MEL-2 = test system: SK-MEL-2
SW-620 = test system: SW-620
TK-10 = test system: TK-10
UACC-62 = test system: UACC-62
SR = test system: SR

| Structure (SMILES) | GI50 (786-0) | GI50 (A549) | GI50 (ACHN) | GI50 (BT-549) | GI50 (HT-29) | GI50 (Hs-578T) | GI50 (MDA-MB-435) | GI50 (MOLT-4) | GI50 (NCI-H226) | GI50 (NCI-H23) | GI50 (NCI-H522) | GI50 (OVCAR-4) | GI50 (OVCAR-8) | GI50 (SK-MEL-28) | GI50 (SK-MEL-2) | GI50 (SW-620) | GI50 (TK-10) | GI50 (UACC-62) | GI50 (SR) |
| --- | --- | --- | --- | --- | --- | --- | --- | --- | --- | --- | --- | --- | --- | --- | --- | --- | --- | --- | --- |
| O=C(Nc1ccc(Cl)cc1)c1cc(S(=O)(=O)Nc2nc3cccnc3[nH]2)c(SSc2cc(Cl)c(C(=O)Nc3ccc(Cl)cc3)cc2S(=O)(=O)Nc2nc3cccnc3[nH]2)cc1Cl | > 100 µM (inactive) | > 100 µM (inactive) | > 100 µM (inactive) | > 100 µM (inactive) | > 100 µM (inactive) | > 100 µM (inactive) | > 100 µM (inactive) | > 100 µM (inactive) | > 100 µM (inactive) | > 100 µM (inactive) | > 100 µM (inactive) | > 100 µM (inactive) | > 100 µM (inactive) | > 100 µM (inactive) | > 100 µM (inactive) | > 100 µM (inactive) | > 100 µM (inactive) | > 100 µM (inactive) | – |
| N#Cc1nc(C2=C(Cl)c3ccccc3OC2)[nH]c1C#N | 32.1 µM (inactive) | 33.3 µM (inactive) | 32.5 µM (inactive) | 18.9 µM (inactive) | 19.1 µM (inactive) | 38.3 µM (inactive) | – | 12.9 µM (inactive) | – | 25.1 µM (inactive) | – | 53.3 µM (inactive) | 30.4 µM (inactive) | 23.2 µM (inactive) | – | 24.7 µM (inactive) | 33.6 µM (inactive) | 22.9 µM (inactive) | – |
| O=[N+]([O-])c1cccc2nc3ccccc3c(NCCCNc3c4ccccc4nc4cccc([N+](=O)[O-])c34)c12 | 0.0146 µM (active) | < 0.0175 µM (active) | 0.0121 µM (active) | 0.0855 µM (active) | < 0.01 µM (active) | 0.0162 µM (active) | 0.0167 µM (active) | 0.017 µM (active) | 0.0697 µM (active) | 0.0182 µM (active) | 0.0146 µM (active) | 0.0635 µM (active) | < 0.0139 µM (active) | 0.0505 µM (active) | 0.035 µM (active) | < 0.01 µM (active) | 0.02 µM (active) | 0.0513 µM (active) | – |
| COc1ccc2c(-c3csc(-c4c[nH]c5ccc(Br)cc45)n3)c[nH]c2c1 | 27.4 µM (inactive) | 91.8 µM (inactive) | 70 µM (inactive) | 67.3 µM (inactive) | 77.6 µM (inactive) | 74.1 µM (inactive) | 7.69 µM (inactive) | 23 µM (inactive) | 45.4 µM (inactive) | 64.9 µM (inactive) | 23.1 µM (inactive) | 70.5 µM (inactive) | > 100 µM (inactive) | > 100 µM (inactive) | 19.1 µM (inactive) | > 100 µM (inactive) | 49 µM (inactive) | > 100 µM (inactive) | – |
| O=C(OCC1CCCN2CCCCC12)c1cccnc1 (stereo not given) | > 100 µM (inactive) | > 100 µM (inactive) | > 100 µM (inactive) | > 100 µM (inactive) | > 100 µM (inactive) | > 100 µM (inactive) | > 100 µM (inactive) | > 100 µM (inactive) | > 100 µM (inactive) | > 100 µM (inactive) | – | > 100 µM (inactive) | > 100 µM (inactive) | > 100 µM (inactive) | > 100 µM (inactive) | > 100 µM (inactive) | > 100 µM (inactive) | > 100 µM (inactive) | – |
| CC(=O)OCC1OC(On2ccccc2=S)C(OC(C)=O)C(OC(C)=O)C1OC(C)=O (stereo not given) | > 100 µM (inactive) | > 100 µM (inactive) | > 100 µM (inactive) | > 100 µM (inactive) | 78.9 µM (inactive) | > 100 µM (inactive) | > 100 µM (inactive) | 33.9 µM (inactive) | – | > 100 µM (inactive) | 49.7 µM (inactive) | > 100 µM (inactive) | > 100 µM (inactive) | > 100 µM (inactive) | > 100 µM (inactive) | 36.6 µM (inactive) | > 100 µM (inactive) | > 100 µM (inactive) | – |
| O=C(Nc1nc(C23CC4CC(CC(C4)C2)C3)cs1)c1cc2ccccc2oc1=O | > 100 µM (inactive) | 38.2 µM (inactive) | > 100 µM (inactive) | > 100 µM (inactive) | > 100 µM (inactive) | > 100 µM (inactive) | > 100 µM (inactive) | > 100 µM (inactive) | > 100 µM (inactive) | > 100 µM (inactive) | > 100 µM (inactive) | > 100 µM (inactive) | > 100 µM (inactive) | > 100 µM (inactive) | – | > 100 µM (inactive) | > 100 µM (inactive) | – | > 100 µM (inactive) |
| CC1=C(C(=O)N(C(C)C)C(C)C)CC(C(=O)N(C(C)C)C(C)C)=C(C)N1 | > 100 µM (inactive) | > 100 µM (inactive) | > 100 µM (inactive) | > 100 µM (inactive) | > 100 µM (inactive) | > 100 µM (inactive) | 79.8 µM (inactive) | > 100 µM (inactive) | > 100 µM (inactive) | > 100 µM (inactive) | > 100 µM (inactive) | > 100 µM (inactive) | > 100 µM (inactive) | – | > 100 µM (inactive) | > 100 µM (inactive) | > 100 µM (inactive) | > 100 µM (inactive) | – |
| COc1ccc(C(C)NNC(=O)c2ccncc2)cc1F (stereo not given) | > 100 µM (inactive) | > 100 µM (inactive) | > 100 µM (inactive) | > 100 µM (inactive) | > 100 µM (inactive) | > 100 µM (inactive) | > 100 µM (inactive) | > 100 µM (inactive) | > 100 µM (inactive) | > 100 µM (inactive) | – | > 100 µM (inactive) | > 100 µM (inactive) | > 100 µM (inactive) | > 100 µM (inactive) | > 100 µM (inactive) | > 100 µM (inactive) | > 100 µM (inactive) | > 100 µM (inactive) |
| COC(=O)C[C@H]1[C@]2(C)C3=C(C)[C@H](c4ccoc4)CC3O[C@@H]2[C@@H]2OC(=O)[C@]3(C)CCC(=O)[C@@]1(C)[C@@H]23 (stereo not given in full) | 32.3 µM (inactive) | 47.1 µM (inactive) | > 100 µM (inactive) | 51.5 µM (inactive) | 33.8 µM (inactive) | 36.1 µM (inactive) | 37.2 µM (inactive) | 20 µM (inactive) | – | 46.5 µM (inactive) | 14.5 µM (inactive) | 41.3 µM (inactive) | 44.8 µM (inactive) | 32.5 µM (inactive) | > 100 µM (inactive) | 50.6 µM (inactive) | – | 49.2 µM (inactive) | 19.6 µM (inactive) |
| C=C1c2nc3ccccc3n2C=C(c2ccc(Cl)cc2)N1c1ccc(OCCN2CCCCC2)cc1 | > 45 µM (inactive) | > 45 µM (inactive) | > 45 µM (inactive) | > 45 µM (inactive) | > 45 µM (inactive) | – | 1.59 µM (inactive) | > 45 µM (inactive) | > 100 µM (inactive) | > 45 µM (inactive) | 14.8 µM (inactive) | > 45 µM (inactive) | > 45 µM (inactive) | > 45 µM (inactive) | > 45 µM (inactive) | > 45 µM (inactive) | > 45 µM (inactive) | > 45 µM (inactive) | > 45 µM (inactive) |
| CCN(CC)CCC(=O)c1ccc(Oc2ccc(Cl)cc2)cc1 | 14.9 µM (inactive) | > 100 µM (inactive) | 12.9 µM (inactive) | 17 µM (inactive) | 21.2 µM (inactive) | 23.6 µM (inactive) | 18.1 µM (inactive) | 20.4 µM (inactive) | – | 17.2 µM (inactive) | 19 µM (inactive) | 15.8 µM (inactive) | 19.9 µM (inactive) | 17.7 µM (inactive) | 14.5 µM (inactive) | 22 µM (inactive) | 18.3 µM (inactive) | 18.6 µM (inactive) | 20.1 µM (inactive) |
| COC(=O)C1=C(C(=O)OC)C2CCC1CC2=O (stereo not given) | > 100 µM (inactive) | > 100 µM (inactive) | > 100 µM (inactive) | > 100 µM (inactive) | > 100 µM (inactive) | – | > 100 µM (inactive) | 45.5 µM (inactive) | > 100 µM (inactive) | > 100 µM (inactive) | 70.6 µM (inactive) | > 100 µM (inactive) | > 100 µM (inactive) | > 100 µM (inactive) | > 100 µM (inactive) | 89.9 µM (inactive) | > 100 µM (inactive) | > 100 µM (inactive) | 61.2 µM (inactive) |
| Cc1ccc(C(=O)Nc2ccc(S(=O)(=O)O)c3cc(S(=O)(=O)O)cc(S(=O)(=O)O)c23)cc1NC(=O)Nc1cc(C(=O)Nc2ccc(S(=O)(=O)O)c3cc(S(=O)(=O)O)cc(S(=O)(=O)O)c23)ccc1C | > 87.5 µM (inactive) | > 87.5 µM (inactive) | > 87.5 µM (inactive) | > 87.5 µM (inactive) | > 87.5 µM (inactive) | – | > 87.5 µM (inactive) | > 87.5 µM (inactive) | > 87.5 µM (inactive) | > 87.5 µM (inactive) | > 87.5 µM (inactive) | > 87.5 µM (inactive) | > 87.5 µM (inactive) | > 87.5 µM (inactive) | > 87.5 µM (inactive) | > 87.5 µM (inactive) | > 87.5 µM (inactive) | > 87.5 µM (inactive) | > 87.5 µM (inactive) |
| Cc1c([C@H](C)[C@@H]2NC[C@@H](C)C[C@H]2O)ccc2c1C[C@H]1[C@H]2CC=C2C[C@@H](O)CC[C@@]21C [VERATRAMINE] | 17 µM (inactive) | 16.7 µM (inactive) | 15 µM (inactive) | 21.1 µM (inactive) | 13.7 µM (inactive) | 20.6 µM (inactive) | 12.9 µM (inactive) | 13.1 µM (inactive) | 11.9 µM (inactive) | 11.7 µM (inactive) | 13 µM (inactive) | 12.6 µM (inactive) | 21.9 µM (inactive) | 17.3 µM (inactive) | – | 28.6 µM (inactive) | 24.4 µM (inactive) | 13 µM (inactive) | – |
